Measured values taken from ChEMBL document CHEMBL1152878, “N-Hydroxy-1,2-disubstituted-1H-benzimidazol-5-yl acrylamides as novel histone deacetylase inhibitors: design, synthesis, SAR studies, and in vivo antitumor activity” (Bioorg Med Chem Lett, 2009).

Columns and labels:
Mus musculus [1] = assay: Toxicity in athymic mouse xenografted with human HCT116 cells assessed as maximum body weight loss at 130 mg/kg, ip qd for 21 measured on day 19; assay type: organism-based, HCT-116; design: dose 130 mg/kg, route intraperitoneal; details: in vivo
[2] = target: T1, Protein deacetylase HDAC6 (Homo sapiens, UniProt Q9UBN7); assay: Inhibition of recombinant HDAC6 by fluorimetric assay
T1 sequence (Q9UBN7 whole entry): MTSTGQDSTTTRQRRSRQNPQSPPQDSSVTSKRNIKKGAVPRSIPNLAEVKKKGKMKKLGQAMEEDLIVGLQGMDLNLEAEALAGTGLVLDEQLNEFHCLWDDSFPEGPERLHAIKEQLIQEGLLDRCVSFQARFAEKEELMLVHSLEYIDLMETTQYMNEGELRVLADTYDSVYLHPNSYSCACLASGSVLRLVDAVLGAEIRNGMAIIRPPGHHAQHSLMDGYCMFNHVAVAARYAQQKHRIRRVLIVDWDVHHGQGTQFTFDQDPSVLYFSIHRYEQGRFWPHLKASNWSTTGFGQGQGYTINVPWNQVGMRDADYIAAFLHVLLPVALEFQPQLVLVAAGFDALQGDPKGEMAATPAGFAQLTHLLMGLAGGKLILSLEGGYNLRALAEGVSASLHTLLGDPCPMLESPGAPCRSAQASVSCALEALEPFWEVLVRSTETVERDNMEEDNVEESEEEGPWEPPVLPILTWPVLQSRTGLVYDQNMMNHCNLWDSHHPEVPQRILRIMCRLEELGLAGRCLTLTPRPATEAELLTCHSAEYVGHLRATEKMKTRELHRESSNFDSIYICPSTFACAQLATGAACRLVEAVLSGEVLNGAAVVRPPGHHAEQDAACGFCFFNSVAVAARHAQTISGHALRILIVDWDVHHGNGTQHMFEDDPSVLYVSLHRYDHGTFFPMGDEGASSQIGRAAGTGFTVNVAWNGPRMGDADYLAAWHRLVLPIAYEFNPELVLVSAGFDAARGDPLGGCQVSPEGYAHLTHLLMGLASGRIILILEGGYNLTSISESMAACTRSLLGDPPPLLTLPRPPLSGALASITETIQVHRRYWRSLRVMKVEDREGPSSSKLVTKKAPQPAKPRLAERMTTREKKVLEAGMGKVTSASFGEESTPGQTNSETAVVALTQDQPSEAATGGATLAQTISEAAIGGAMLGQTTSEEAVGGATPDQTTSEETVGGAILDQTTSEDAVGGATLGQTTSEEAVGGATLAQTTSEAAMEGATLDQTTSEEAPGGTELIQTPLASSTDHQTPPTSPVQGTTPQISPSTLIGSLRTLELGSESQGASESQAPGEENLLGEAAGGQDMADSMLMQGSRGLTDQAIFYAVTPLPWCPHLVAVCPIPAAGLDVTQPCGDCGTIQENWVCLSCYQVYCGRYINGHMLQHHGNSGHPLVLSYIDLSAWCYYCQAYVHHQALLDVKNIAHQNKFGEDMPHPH

Histone deacetylase 4 = Histone deacetylase 4 (Homo sapiens, UniProt P56524); assay: Inhibition of recombinant HDAC4 by fluorimetric assay
Sequence of Histone deacetylase 4 (P56524 whole entry): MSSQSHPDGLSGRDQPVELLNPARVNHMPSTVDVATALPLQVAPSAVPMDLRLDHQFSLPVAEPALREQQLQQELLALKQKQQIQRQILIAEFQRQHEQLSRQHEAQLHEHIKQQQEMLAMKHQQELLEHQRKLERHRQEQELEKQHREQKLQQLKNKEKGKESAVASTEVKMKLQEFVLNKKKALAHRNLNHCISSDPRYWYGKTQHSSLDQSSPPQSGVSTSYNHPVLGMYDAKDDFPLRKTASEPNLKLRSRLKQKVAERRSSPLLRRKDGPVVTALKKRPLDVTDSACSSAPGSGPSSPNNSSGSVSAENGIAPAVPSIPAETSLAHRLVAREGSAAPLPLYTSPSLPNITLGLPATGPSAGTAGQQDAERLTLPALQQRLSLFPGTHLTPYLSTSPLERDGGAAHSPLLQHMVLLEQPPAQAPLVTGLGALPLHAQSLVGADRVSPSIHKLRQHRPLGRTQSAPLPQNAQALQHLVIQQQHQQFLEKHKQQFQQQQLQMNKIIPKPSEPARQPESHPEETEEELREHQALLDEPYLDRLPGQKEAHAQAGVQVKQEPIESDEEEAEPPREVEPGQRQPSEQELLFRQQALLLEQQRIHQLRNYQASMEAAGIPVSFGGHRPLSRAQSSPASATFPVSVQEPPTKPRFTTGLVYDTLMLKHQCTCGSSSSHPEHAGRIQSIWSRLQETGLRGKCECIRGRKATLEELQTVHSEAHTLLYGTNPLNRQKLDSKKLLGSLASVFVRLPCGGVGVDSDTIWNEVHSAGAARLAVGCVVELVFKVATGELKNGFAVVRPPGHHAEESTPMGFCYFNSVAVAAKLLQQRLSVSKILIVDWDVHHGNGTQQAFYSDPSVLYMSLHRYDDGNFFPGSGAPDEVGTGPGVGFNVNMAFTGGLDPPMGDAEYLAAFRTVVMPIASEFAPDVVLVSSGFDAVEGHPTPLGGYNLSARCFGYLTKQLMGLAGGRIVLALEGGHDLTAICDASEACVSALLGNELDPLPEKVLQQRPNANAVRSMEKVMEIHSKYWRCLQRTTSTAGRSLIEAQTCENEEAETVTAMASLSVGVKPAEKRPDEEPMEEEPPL

HCT-116 [3] = assay: Antitumor activity against human HCT116 cells xenografted in athymic mouse assessed as tumor growth inhibition at 200 mg/kg, po qd for 21 days measured on day 21; assay type: functional; details: HCT-116, 504 h, read-out: TGI
Mus musculus [4] = assay: Toxicity in athymic mouse xenografted with human HCT116 cells assessed as maximum body weight loss at 100 mg/kg, po qd for 21 days; assay type: organism-based, HCT-116; design: dose 100 mg/kg, route oral; details: in vivo, 504 h
HCT-116 [5] = assay: Antitumor activity against human HCT116 cells xenografted in athymic mouse assessed as tumor growth inhibition at 70 mg/kg, ip qd for 21 days measured on day 22; assay type: functional; details: HCT-116, ip, route intraperitoneal, read-out: TGI
Histone deacetylase 3 = Histone deacetylase 3 (Homo sapiens, UniProt O15379); assay: Inhibition of recombinant HDAC3 by fluorimetric assay
Sequence of Histone deacetylase 3 (O15379 whole entry): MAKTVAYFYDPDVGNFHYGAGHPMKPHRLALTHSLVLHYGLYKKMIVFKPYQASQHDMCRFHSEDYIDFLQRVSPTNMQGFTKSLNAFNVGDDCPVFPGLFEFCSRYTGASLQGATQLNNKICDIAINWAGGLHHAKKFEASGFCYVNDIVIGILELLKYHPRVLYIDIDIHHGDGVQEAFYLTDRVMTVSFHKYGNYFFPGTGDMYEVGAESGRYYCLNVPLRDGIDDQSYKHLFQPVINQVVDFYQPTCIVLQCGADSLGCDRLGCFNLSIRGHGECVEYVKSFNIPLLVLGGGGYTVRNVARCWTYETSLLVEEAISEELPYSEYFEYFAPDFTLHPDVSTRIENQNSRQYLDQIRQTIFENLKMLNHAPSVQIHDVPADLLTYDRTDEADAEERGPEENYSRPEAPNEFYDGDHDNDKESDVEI

Mus musculus [6] = assay: Toxicity in athymic mouse xenografted with human HCT116 cells assessed as maximum body weight loss at 70 mg/kg, ip qd for 21 days measured on day 15; assay type: organism-based, HCT-116; design: dose 70 mg/kg, route intraperitoneal; details: in vivo, 504 h
COLO 205 = assay: Antiproliferative activity against human COLO205 cells after 96 hrs by celltiter assay; assay type: functional, cell-based; details: COLO 205, 96 h
Histone deacetylase 8 = target: T2, Histone deacetylase 8 (Homo sapiens, UniProt Q9BY41); assay: Inhibition of recombinant HDAC8 by fluorimetric assay
T2 sequence (Q9BY41 whole entry): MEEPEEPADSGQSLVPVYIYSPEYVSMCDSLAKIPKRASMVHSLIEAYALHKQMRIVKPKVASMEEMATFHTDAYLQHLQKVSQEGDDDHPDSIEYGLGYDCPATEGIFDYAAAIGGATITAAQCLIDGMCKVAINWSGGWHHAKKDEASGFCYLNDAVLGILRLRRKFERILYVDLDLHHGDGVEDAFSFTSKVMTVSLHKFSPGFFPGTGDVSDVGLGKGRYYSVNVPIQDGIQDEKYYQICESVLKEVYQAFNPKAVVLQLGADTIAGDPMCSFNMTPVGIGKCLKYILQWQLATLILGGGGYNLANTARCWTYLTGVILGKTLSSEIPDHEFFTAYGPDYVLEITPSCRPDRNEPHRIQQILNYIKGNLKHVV

HCT-116 [7] = assay: Antitumor activity against human HCT116 cells xenografted in athymic mouse assessed as tumor growth inhibition at 130 mg/kg, ip qd for 21 days measured on day 22; assay type: functional; details: HCT-116, ip, route intraperitoneal, read-out: TGI
HCT-116 [8] = assay: Antitumor activity against human HCT116 cells xenografted in athymic mouse assessed as tumor growth inhibition at 100 mg/kg, po qd for 21 days measured on day 21; assay type: functional; details: HCT-116, 504 h, read-out: TGI
Histone deacetylase 11 = target: T3, Histone deacetylase 11 (Homo sapiens, UniProt Q96DB2); assay: Inhibition of recombinant HDAC11 by fluorimetric assay
T3 sequence (Q96DB2 whole entry): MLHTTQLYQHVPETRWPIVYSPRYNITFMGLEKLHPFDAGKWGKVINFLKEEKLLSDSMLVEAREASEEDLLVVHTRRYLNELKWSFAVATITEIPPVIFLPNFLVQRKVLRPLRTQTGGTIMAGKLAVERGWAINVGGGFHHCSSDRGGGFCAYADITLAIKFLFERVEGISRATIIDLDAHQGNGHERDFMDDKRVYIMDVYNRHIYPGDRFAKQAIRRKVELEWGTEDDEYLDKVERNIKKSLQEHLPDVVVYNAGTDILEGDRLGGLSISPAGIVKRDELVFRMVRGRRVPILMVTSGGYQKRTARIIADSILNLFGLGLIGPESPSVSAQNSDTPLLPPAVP

[9] = Toxicity in ip dosed athymic mouse assessed as maximum tolerated dose; assay type: organism-based; details: in vivo
Histone deacetylase 5 = Histone deacetylase 5 (Homo sapiens, UniProt Q9UQL6); assay: Inhibition of recombinant HDAC5 by fluorimetric assay
Sequence of Histone deacetylase 5 (Q9UQL6 whole entry): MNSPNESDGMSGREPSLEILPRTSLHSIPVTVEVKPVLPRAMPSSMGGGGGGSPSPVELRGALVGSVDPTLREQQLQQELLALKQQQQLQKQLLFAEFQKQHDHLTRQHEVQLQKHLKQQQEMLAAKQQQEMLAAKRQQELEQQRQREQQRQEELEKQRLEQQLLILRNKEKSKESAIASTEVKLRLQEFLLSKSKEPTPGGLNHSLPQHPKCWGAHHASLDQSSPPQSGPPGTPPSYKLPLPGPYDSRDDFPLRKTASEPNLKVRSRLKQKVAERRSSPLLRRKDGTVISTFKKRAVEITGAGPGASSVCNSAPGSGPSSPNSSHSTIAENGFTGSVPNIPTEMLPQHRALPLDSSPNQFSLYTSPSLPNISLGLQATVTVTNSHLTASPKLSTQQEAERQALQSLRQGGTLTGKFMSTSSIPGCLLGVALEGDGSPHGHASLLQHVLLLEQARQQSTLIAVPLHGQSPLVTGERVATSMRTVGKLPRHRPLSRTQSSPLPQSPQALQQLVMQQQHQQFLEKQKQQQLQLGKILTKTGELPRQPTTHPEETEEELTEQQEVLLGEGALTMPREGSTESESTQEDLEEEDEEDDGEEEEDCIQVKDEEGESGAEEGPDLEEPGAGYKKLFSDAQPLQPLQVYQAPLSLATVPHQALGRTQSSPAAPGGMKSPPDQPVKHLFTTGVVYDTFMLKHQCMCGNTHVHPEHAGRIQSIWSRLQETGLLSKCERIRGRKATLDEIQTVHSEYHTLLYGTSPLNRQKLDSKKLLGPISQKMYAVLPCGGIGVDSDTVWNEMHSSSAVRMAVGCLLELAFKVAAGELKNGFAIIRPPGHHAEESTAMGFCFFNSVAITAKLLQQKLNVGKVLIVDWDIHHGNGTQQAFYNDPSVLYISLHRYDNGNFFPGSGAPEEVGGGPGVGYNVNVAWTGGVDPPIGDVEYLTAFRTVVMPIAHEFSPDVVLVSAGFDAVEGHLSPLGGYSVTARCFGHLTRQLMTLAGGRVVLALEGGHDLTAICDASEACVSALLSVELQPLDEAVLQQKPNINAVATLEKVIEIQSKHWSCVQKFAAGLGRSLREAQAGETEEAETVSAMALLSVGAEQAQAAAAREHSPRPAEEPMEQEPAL

Mus musculus [10] = assay: Toxicity in athymic xenografted with human HCT116 cells mouse assessed as maximum body weight loss at 200 mg/kg, po qd for 21 days measured on day 7; assay type: organism-based, HCT-116; design: dose 200 mg/kg, route oral; details: in vivo, 504 h
[11] = Cmax in mouse at 50 mg/kg, po; assay type: ADME, organism-based; design: dose 50 mg/kg, route oral; details: in vivo
[12] = Oral bioavailability in mouse at 50 mg/kg; assay type: ADME, organism-based; details: in vivo
Histone deacetylase 9 = Histone deacetylase 9 (Homo sapiens, UniProt Q9UKV0); assay: Inhibition of recombinant HDAC9 by fluorimetric assay
Sequence of Histone deacetylase 9 (Q9UKV0 whole entry): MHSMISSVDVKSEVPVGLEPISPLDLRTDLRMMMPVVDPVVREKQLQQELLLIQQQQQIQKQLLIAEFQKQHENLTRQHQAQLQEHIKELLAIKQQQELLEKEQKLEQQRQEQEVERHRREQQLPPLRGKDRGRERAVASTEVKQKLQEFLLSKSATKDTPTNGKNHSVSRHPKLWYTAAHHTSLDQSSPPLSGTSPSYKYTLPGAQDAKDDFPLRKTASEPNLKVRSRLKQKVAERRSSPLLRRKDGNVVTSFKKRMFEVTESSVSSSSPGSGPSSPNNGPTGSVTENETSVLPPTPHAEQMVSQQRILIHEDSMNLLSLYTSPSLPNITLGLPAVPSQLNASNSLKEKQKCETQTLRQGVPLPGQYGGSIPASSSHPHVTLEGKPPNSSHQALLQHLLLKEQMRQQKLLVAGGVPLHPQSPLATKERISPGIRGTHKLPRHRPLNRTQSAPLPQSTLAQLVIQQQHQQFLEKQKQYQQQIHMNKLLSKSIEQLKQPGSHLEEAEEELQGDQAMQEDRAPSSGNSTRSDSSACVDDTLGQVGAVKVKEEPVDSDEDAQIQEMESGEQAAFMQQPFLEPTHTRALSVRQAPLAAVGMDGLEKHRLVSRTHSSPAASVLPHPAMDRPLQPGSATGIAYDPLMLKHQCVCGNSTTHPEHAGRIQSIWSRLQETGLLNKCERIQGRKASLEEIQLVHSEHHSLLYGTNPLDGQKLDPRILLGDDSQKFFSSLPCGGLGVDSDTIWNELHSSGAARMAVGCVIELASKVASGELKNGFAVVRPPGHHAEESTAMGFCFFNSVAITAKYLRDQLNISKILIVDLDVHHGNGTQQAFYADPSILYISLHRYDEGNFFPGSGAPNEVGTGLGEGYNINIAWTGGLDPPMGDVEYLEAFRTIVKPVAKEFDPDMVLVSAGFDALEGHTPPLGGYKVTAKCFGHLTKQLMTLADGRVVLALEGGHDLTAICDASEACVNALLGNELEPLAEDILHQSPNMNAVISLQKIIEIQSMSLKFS

[13] = Solubility at pH 6.5; assay type: physicochemical; details: buffer
[14] = Lipophilicity, log D at pH 7.3; assay type: physicochemical; details: buffer

O=C(/C=C/c1ccc2c(c1)nc(CCc1ccccc1)n2CCN1CCCC1)NO
Activity (Mus musculus [1]): 8.7% | Ki [2]: 20.6 nM | Ki (Histone deacetylase 4): 9.6 nM | inhibition in vivo at 200 mg/kg (HCT-116 [3]): 78% | Activity (Mus musculus [4]): Non-toxic | inhibition in vivo at 70 mg/kg (HCT-116 [5]): 59% | Ki (Histone deacetylase 3): 12.5 nM | Activity (Mus musculus [6]): 0.5% | IC50 (COLO 205): 140 nM | Ki (Histone deacetylase 8): 82 nM | inhibition in vivo at 130 mg/kg (HCT-116 [7]): 89% | inhibition in vivo at 100 mg/kg (HCT-116 [8]): 43% | Ki (Histone deacetylase 11): 12.8 nM | MTD [9]: 130 mg/kg | Ki (Histone deacetylase 5): 17.2 nM | Activity (Mus musculus [10]): 5.7% | Cmax [11]: 920 nM | bioavailability [12]: 13% | Ki (Histone deacetylase 9): 19.2 nM

Cl.O=C(/C=C/c1ccc2c(c1)nc(CCc1ccccc1)n2CCN1CCCC1)NO
solubility [13]: 1600 µg/mL | logD [14]: 2.1
